ChEMBL document CHEMBL3039007, “Structure-based identification of OATP1B1/3 inhibitors” (Mol Pharmacol, 2013)

Key:
[1] = target: T1, Solute carrier organic anion transporter family member 1B3 (Homo sapiens, UniProt Q9NPD5); details: chinese hamster, cho, 10 µM
T1 sequence (Q9NPD5 whole entry): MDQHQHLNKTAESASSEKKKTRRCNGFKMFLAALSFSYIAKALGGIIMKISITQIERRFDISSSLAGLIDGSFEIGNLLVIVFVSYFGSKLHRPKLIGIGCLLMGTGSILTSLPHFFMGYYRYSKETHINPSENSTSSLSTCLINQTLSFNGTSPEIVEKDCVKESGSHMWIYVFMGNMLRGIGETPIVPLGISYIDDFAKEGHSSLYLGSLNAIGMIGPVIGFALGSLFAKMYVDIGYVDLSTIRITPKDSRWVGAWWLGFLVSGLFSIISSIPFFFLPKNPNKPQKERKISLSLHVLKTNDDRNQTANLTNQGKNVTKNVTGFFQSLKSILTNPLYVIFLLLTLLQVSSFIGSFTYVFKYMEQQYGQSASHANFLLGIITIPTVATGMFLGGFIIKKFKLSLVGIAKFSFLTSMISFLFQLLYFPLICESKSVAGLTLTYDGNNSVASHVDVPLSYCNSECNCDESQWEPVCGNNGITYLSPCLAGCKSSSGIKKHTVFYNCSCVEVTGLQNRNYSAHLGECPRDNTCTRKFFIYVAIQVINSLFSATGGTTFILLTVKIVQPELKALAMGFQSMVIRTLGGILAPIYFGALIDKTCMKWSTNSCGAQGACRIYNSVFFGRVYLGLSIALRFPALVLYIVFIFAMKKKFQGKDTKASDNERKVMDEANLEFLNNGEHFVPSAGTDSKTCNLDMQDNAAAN

[2] = target: T2, Solute carrier organic anion transporter family member 1B1 (Homo sapiens, UniProt Q9Y6L6); details: chinese hamster, cho, 10 µM
T2 sequence (Q9Y6L6 whole entry): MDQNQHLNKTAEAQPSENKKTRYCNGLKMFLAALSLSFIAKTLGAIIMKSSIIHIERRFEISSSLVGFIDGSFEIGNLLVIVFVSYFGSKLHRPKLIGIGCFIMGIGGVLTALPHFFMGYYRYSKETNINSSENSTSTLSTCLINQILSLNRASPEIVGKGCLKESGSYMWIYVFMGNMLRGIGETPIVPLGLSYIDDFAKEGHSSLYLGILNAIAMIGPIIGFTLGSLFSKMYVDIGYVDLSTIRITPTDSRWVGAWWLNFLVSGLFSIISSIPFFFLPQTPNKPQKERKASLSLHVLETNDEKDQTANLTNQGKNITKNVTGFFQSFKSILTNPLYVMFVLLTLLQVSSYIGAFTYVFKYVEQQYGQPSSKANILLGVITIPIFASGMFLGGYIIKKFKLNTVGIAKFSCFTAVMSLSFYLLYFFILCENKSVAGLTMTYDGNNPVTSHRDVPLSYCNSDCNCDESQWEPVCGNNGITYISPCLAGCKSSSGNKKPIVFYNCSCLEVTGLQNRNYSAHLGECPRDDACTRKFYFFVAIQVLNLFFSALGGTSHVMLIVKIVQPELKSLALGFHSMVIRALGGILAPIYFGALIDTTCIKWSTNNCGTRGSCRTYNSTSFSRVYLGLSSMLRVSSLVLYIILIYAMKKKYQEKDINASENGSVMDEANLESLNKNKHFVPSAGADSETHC

| SMILES | residual activity [1] [%] | residual activity [2] [%] |
| --- | --- | --- |
| C=C1C(=O)O[C@@H]2C[C@@]3(C)CCC[C@H](C)C3=C[C@H]12 [HELENINE] | 115.2 | 116 |
| O=C1C=C2CC3(O)COc4c(ccc(O)c4O)C3=C2C=C1O (centres undefined) [HEMATEIN] | 73.22 | 65.79 |
| Oc1cc2c(cc1O)[C@@H]1c3ccc(O)c(O)c3OC[C@]1(O)C2 [HEMATOXYLIN] | 91.69 | 88.87 |
| ClC1=C(Cl)C2(Cl)C3C(Cl)C=CC3C1(Cl)C2(Cl)Cl (centres undefined) [HEPTACHLOR] | 131.9 | 98.77 |
| CC(N)CCCC(C)(C)O.Cl (centres undefined) [HEPTAMINOL HYDROCHLORIDE] | 104.5 | 95.56 |
| COc1ccc2ccc(=O)oc2c1 [HERNIARIN] | 104.5 | 148.3 |
| COc1ccc([C@@H]2CC(=O)c3c(O)cc(O)cc3O2)cc1O [HESPERETIN] | 113.3 | 98.42 |
| COc1ccc([C@@H]2CC(=O)c3c(O)cc(O[C@@H]4O[C@H](CO[C@@H]5O[C@@H](C)[C@H](O)[C@@H](O)[C@H]5O)[C@@H](O)[C@H](O)[C@H]4O)cc3O2)cc1O [HESPERIDIN] | 110.2 | 106.1 |
| CC1(C)S[C@@H]2[C@H](N3C(=O)[C@@H](c4ccccc4)NC3(C)C)C(=O)N2[C@H]1C(=O)[O-].[K+] [HETACILLIN POTASSIUM] | 89.09 | 81.9 |
| Oc1c(Cl)cc(Cl)c(Cl)c1Cc1c(O)c(Cl)cc(Cl)c1Cl [HEXACHLOROPHENE] | 3.11 | 7.55 |
| C[N+](C)(C)CCCCCC[N+](C)(C)C.[Br-].[Br-] [HEXAMETHONIUM BROMIDE] | 77.59 | 76.07 |
| CC[C@H](c1ccc(O)cc1)[C@@H](CC)c1ccc(O)cc1 [HEXESTROL] | 43.21 | 46.62 |
| CCCCC(CC)CN1CN(CC(CC)CCCC)CC(C)(N)C1 (centres undefined) [HEXETIDINE] | 102.1 | 75.93 |
| CCCCCCc1ccc(O)cc1O [HEXYLRESORCINOL] | 84.11 | 115.5 |
| C[N+]1(C)[C@@H]2CC[C@H]1C[C@@H](OC(=O)C(O)c1ccccc1)C2.[Br-] (some centres undefined) [HOMATROPINE METHYLBROMIDE] | 73.94 | 77.55 |
| CC[n+]1c(-c2ccccc2)c2cc(N)ccc2c2ccc(N)cc21.[Br-] [HOMIDIUM BROMIDE] | 100.7 | 98.94 |
| COC(=O)C[C@H]1C(C)(C)C(OC(C)=O)[C@]2(O)C=C3C4CC(=O)O[C@@H](c5ccoc5)[C@]4(C)CCC3[C@@]1(C)C2=O (some centres undefined) [HUMILIN A] | 34.35 | 22.34 |
| C/C=C1\[C@H]2C=C(C)C[C@]1(N)c1ccc(=O)[nH]c1C2 [HUPERZINE A] | 101.3 | 93.86 |
| CCN(CC)CCNc1ccc(CO)c2sc3ccccc3c(=O)c12 [HYCANTHONE] | 100.5 | 79.76 |
| Cl.NNc1nncc2ccccc12 [HYDRALAZINE HYDROCHLORIDE] | 115.1 | 87.74 |
| CN1CCc2cc3c(cc2C1O)OCO3.Cl (centres undefined) [HYDRASTININE HYDROCHLORIDE] | 73.39 | 62.32 |
| NS(=O)(=O)c1cc2c(cc1Cl)NCNS2(=O)=O [HYDROCHLOROTHIAZIDE] | 82.24 | 68.94 |
| CC(=O)OCC(=O)[C@@]1(O)CC[C@H]2[C@@H]3CCC4=CC(=O)CC[C@]4(C)[C@H]3[C@@H](O)C[C@@]21C [HYDROCORTISONE ACETATE] | 91.1 | 93.94 |
| CCCC(=O)O[C@]1(C(=O)CO)CC[C@H]2[C@@H]3CCC4=CC(=O)CC[C@]4(C)[C@H]3[C@@H](O)C[C@@]21C [HYDROCORTISONE BUTYRATE] | 98.06 | 100.3 |

| SMILES | residual activity [1] [%] | residual activity [2] [%] |
| --- | --- | --- |
| C[C@]12CCC(=O)C=C1CC[C@@H]1[C@@H]2[C@@H](O)C[C@@]2(C)[C@H]1CC[C@]2(O)C(=O)COC(=O)CCC(=O)O [HYDROCORTISONE HEMISUCCINATE ANHYDROUS] | 101.8 | 93.98 |
| C[C@]12CCC(=O)C=C1CC[C@@H]1[C@@H]2[C@@H](O)C[C@@]2(C)[C@H]1CC[C@]2(O)C(=O)CO [HYDROCORTISONE] | 113.8 | 98.24 |
| Br.COc1c2c(cc3c1OCO3)CCN(C)C2 [HYDROCOTARNINE HYDROBROMIDE] | 89.75 | 99.81 |
| COc1c2c(cc3c1OCO3)CCN(C)C2 [HYDROCOTARNINE] | 98.91 | 77.76 |
| NS(=O)(=O)c1cc2c(cc1C(F)(F)F)NCNS2(=O)=O [HYDROFLUMETHIAZIDE] | 85.97 | 82.22 |
| CC(C)/C(O)=C1/C(=O)O[C@@H](c2ccoc2)[C@]2(C)C(O)[C@@H](O)[C@@]34OC5(C)OC67CC(C)(C(O)[C@]6(O)[C@@H](O)[C@]3(O5)C12)[C@H](CC(=O)O)[C@]74C (some centres undefined) [HYDROLYSIS PRODUCT OF BUSSEIN] | 78.08 | 52.29 |
| CC[C@H]1CN2CC[C@H]1C[C@@H]2[C@@H](O)c1ccnc2ccc(OC)cc12 [HYDROQUINIDINE] | 96.11 | 77.48 |
| Oc1ccc(O)cc1 [HYDROQUINONE] | 93.82 | 112.9 |
| Br.CC(N)Cc1ccc(O)cc1 (centres undefined) [HYDROXYAMPHETAMINE HYDROBROMIDE] | 84.1 | 85.8 |
| CCN(CCO)CCCC(C)Nc1ccnc2cc(Cl)ccc12.O=S(=O)(O)O (centres undefined) [HYDROXYCHLOROQUINE SULFATE] | 90.84 | 90.44 |
| CCCCCC(=O)O[C@]1(C(C)=O)CC[C@H]2[C@@H]3CCC4=CC(=O)CC[C@]4(C)[C@H]3CC[C@@]21C [HYDROXYPROGESTERONE CAPROATE] | 55.76 | 40.59 |
| Cc1cccc(C(=O)O)c1O [HYDROXYTOLUIC ACID] | 110.2 | 125.2 |
| COc1ccc2c(C)cc(=O)oc2c1 [HYMECROMONE METHYL ETHER] | 127.1 | 109.2 |
| O=c1[nH]cnc2nc[nH]c12 [HYPOXANTHINE] | 92.8 | 92.05 |
| CC(C)Cc1ccc(C(C)C(=O)O)cc1 (centres undefined) [IBUPROFEN] | 98.25 | 111.7 |
| COc1ccc(-c2oc3c(CC=C(C)C)c(O[C@@H]4O[C@H](CO)[C@@H](O)[C@H](O)[C@H]4O)cc(O)c3c(=O)c2O[C@@H]2O[C@@H](C)[C@H](O)[C@@H](O)[C@H]2O)cc1 [ICARIIN] | 126.8 | 212.5 |
| COc1cc2c(cc1-c1coc3c4c(c(OC)cc3c1=O)OC(C)(C)C=C4)OCO2 [ICHTHYNONE] | 118.8 | 105.6 |
| O=[N+]([O-])NC1=NCCN1Cc1ccc(Cl)nc1 [IMIDACLOPRID] | 90.03 | 73.94 |
| CN(C)CCCN1c2ccccc2CCc2ccccc21.Cl [IMIPRAMINE HYDROCHLORIDE] | 92.77 | 61.55 |
| CC1Cc2ccccc2N1NC(=O)c1ccc(Cl)c(S(N)(=O)=O)c1 (centres undefined) [INDAPAMIDE] | 97.5 | 80.06 |
| O=C(O)c1cc2ccccc2[nH]1 [INDOLE-2-CARBOXYLIC ACID] | 117.8 | 121.4 |
| OCc1c[nH]c2ccccc12 [INDOLE-3-CARBINOL] | 121.9 | 88.32 |
| COc1ccc2c(c1)c(CC(=O)O)c(C)n2C(=O)c1ccc(Cl)cc1 [INDOMETHACIN] | 50.32 | 97.38 |
